One block for each compound: values may come before it.
Columns and labels:
[1] = tested on: cytokine release; conditions: Wang et al., J. Neurosci. 2012; cited from earlier work
[2] = target: T1, filamin A linkages with toll-like receptor 4 (Homo sapiens, UniProt P21333); assay: Phase 2a trial, filamin A linkage with toll-like receptor 4; format: in vivo; conditions: after 28 days of treatment
T1 construct: filamin A linkages with α7-nicotinic acetylcholine receptor and toll-like receptor 4; endogenous in cells; host or cells: patients' lymphocytes
Experimental: (§1) Briefly, the study included 13 mild-to-moderate Alzheimer's disease patients, age 50-85, Mini Mental State Exam≥16 and ≤24 with a cerebrospinal fluid total tau/Aβ42 ratio […]. A pharmaceutical composition containing 100 mg of simufilam (PTI-125) in an orally administered tablet were given to the patients twice daily for 28 consecutive days. The study was conducted at five sites in the U.S. under an Investigational New Drug (IND) application.
(§2) Biomarker reductions were at least p 0.001 by paired “t” test. Target engagement was shown in lymphocytes by a shift in filamin A's conformation from aberrant to native: 93% was aberrant on Day 1 vs. 40% on Day 28.

[3] = Phase 2a trial, safety and tolerability; format: in vivo, human; conditions: all patients, 100 mg twice daily for 28 days
Experimental: as §1

[4] = target: α7-nicotinic acetylcholine receptor (Homo sapiens, UniProt P36544); conditions: cited from earlier work
α7-nicotinic acetylcholine receptor, sequence (P36544 23-502): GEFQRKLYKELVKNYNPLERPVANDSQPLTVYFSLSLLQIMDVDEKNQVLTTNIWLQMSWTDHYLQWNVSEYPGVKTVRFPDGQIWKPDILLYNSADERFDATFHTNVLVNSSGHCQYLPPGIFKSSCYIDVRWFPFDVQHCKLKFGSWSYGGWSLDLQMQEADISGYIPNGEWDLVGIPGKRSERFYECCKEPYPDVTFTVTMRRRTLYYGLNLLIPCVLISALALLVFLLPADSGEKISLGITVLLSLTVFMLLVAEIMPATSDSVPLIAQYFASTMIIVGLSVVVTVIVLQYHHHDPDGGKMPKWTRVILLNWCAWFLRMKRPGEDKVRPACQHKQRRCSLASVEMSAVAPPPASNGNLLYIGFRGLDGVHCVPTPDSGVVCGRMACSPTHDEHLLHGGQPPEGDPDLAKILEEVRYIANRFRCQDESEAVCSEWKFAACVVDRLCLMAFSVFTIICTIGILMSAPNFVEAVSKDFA

[5] = target: FLNA association with toll-like receptor 4 (TLR4) (Homo sapiens, UniProt P21333); conditions: Wang et al., J. Neurosci. 2012; cited from earlier work
[6] = tested on: about 90 kDa FLNA polypeptide fragment; assay: Phase 2a trial, about 90 kDa FLNA polypeptide fragment in plasma; format: in vivo, human; conditions: group of 13 patients, P<0.01
Experimental: FIG. 13 is a graph showing the amounts in arbitrary units of the about 90 kDa FLNA polypeptide fragment found in the plasma of 13 AD patients in a Phase 2a clinical trial who were treated with a medicament twice daily for 28 days and had their blood plasma assayed on days 0, 14 and 28 for the presence and amount of the about 90 kDa FLNA polypeptide fragment.
as §1
An assay for the presence and amount of the about 90 kDa FLNA polypeptide fragment in the plasma of each patient was also separately determined on days 0, 14 and 28 of the trial. […] Those results are shown graphically in FIG. 13 and indicate that the treatment appeared to be effective and was in agreement with the more standard assays.

[7] = tested on: Aβ42 complexes with CD14; assay: Phase 2a trial, Aβ42 complexes with CD14; format: in vivo, human; conditions: after 28 days of treatment
Experimental: as §1, §2

[8] = Phase 2a trial, plasma pharmacokinetics; format: in vivo, human
Experimental: as §1

[9] = target: T2, filamin A (Homo sapiens, UniProt P21333); assay: Phase 2a trial, target engagement in lymphocytes: filamin A conformation; format: in vivo
T2 construct: endogenous in cells; host or cells: patients' lymphocytes
T2 sequence (P21333 whole entry): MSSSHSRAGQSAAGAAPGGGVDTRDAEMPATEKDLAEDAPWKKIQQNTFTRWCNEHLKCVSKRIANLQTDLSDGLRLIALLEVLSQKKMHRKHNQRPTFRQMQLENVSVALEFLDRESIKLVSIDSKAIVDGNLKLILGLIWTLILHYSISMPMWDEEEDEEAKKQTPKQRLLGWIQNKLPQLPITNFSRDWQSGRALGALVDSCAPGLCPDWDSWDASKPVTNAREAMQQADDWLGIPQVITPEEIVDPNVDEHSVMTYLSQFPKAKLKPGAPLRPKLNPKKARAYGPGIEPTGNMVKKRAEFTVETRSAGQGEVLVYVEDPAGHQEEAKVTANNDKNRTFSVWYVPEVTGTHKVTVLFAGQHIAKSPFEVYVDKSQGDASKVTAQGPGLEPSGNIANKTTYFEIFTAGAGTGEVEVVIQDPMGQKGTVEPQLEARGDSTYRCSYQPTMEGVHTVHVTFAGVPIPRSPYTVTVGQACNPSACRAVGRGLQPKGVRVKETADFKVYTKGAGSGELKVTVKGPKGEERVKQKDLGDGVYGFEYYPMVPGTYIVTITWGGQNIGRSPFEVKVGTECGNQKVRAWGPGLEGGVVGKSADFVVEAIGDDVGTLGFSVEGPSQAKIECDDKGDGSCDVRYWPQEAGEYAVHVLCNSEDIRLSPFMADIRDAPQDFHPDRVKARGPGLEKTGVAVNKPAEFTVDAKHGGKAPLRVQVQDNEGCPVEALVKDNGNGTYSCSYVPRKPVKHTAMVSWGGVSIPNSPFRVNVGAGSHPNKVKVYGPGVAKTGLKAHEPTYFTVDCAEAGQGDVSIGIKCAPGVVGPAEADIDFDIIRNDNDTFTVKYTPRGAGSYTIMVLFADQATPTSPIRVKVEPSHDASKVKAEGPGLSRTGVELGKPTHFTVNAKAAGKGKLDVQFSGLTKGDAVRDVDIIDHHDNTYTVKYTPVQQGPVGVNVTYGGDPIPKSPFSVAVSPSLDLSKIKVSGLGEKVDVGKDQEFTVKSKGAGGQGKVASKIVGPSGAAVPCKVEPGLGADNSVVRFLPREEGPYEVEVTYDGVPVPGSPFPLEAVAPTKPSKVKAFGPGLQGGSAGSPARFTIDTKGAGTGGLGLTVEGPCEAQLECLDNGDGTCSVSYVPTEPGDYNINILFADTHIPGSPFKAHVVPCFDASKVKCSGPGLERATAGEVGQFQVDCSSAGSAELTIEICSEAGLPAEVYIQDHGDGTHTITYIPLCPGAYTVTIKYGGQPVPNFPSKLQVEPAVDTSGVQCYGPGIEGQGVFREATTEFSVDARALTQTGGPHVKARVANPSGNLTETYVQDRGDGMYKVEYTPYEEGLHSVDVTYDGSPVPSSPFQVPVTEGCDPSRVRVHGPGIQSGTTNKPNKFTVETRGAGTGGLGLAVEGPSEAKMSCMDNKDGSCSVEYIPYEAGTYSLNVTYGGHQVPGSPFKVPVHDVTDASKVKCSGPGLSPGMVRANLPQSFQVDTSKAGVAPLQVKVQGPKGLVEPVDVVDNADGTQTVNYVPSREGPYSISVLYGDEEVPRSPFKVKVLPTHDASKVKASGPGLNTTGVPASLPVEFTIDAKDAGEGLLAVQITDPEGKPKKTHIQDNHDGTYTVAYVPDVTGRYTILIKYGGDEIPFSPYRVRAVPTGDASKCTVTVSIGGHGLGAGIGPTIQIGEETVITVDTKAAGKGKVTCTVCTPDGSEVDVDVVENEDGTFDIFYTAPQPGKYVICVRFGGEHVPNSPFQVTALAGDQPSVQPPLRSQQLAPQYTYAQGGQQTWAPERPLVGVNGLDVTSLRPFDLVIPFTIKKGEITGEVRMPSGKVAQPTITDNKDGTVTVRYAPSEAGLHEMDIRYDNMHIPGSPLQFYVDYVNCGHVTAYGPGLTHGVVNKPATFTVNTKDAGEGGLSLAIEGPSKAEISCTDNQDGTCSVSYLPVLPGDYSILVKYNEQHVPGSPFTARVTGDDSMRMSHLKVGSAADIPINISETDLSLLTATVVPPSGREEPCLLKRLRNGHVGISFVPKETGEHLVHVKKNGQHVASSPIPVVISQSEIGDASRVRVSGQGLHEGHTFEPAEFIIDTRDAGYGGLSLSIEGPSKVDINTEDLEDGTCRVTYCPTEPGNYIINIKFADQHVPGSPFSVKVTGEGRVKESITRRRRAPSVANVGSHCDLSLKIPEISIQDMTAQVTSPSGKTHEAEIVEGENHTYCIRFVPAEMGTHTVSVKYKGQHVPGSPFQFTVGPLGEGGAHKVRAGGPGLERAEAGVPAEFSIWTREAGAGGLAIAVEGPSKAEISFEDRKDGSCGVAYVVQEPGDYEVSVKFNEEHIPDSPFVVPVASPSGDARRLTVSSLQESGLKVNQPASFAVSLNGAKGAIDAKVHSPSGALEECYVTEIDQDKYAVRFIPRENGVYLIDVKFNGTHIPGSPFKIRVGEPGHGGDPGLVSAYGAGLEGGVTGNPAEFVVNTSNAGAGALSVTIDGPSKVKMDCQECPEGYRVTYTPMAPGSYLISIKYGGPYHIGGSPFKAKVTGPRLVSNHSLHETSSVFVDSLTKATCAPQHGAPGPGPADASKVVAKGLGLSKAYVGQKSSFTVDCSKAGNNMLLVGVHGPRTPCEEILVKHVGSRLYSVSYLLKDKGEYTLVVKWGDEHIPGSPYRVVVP
Experimental: as §1, §2

[10] = tested on: Aβ42 complexes with α7-nicotinic acetylcholine receptor; assay: Phase 2a trial, Aβ42 complexes with α7-nicotinic acetylcholine receptor; format: in vivo, human; conditions: after 28 days of treatment
Experimental: as §1, §2

[11] = tested on: cerebrospinal fluid biomarkers of Alzheimer's disease pathology, neurodegeneration and neuroinflammation; assay: Phase 2a clinical trial, cerebrospinal fluid and plasma biomarkers; format: in vivo, human
Excerpt: A small Phase 2a clinical trial that utilized a contemplated prognostic method along with other methodologies was first reported in the fall of 2019. The results of that trial were thereafter reported at Clinical Trials on Alzheimer's Disease (CTAD), December 4-7th, 2019 in San Diego, CA, and were published as Wang et al., J Prev Alzheimers Dis published 7 Feb. 2020. The use of the assay disclosed herein was neither shown nor discussed in that article.
as §1
Consistent with the drug's mechanism of action and preclinical data, the simufilam (PTI-125) reduced cerebrospinal fluid biomarkers of Alzheimer's disease pathology, neurodegeneration and neuroinflammation from baseline to Day 28.
Total tau, neurogranin, and neurofilament light chain decreased by 20%, 32% and 22%, respectively. Phospho-tau (pT181) decreased 34%, evidence that the compound suppresses tau hyperphosphorylation induced by Aβ42's signaling through α7-nicotinic acetylcholine receptor. Cerebrospinal fluid biomarkers of neuroinflammation (YKL-40 and inflammatory cytokines) decreased by 5-14%. Biomarker effects were similar in plasma.
This increase is consistent with the compound's 1,000-fold reduction of Aβ42's femtomolar binding affinity to α7-nicotinic acetylcholine receptor.

[12] = target: T3, filamin A linkages with α7-nicotinic acetylcholine receptor (Homo sapiens, UniProt P21333); assay: Phase 2a trial, filamin A linkage with α7-nicotinic acetylcholine receptor; format: in vivo; conditions: after 28 days of treatment
T3 construct: filamin A linkages with α7-nicotinic acetylcholine receptor and toll-like receptor 4; endogenous in cells; host or cells: patients' lymphocytes
Experimental: as §1, §2

[13] = tested on: prefrontal cortex and hippocampus brain slices; assay: Ex vivo organotypic brain slice culture with Aβ42 exposure; format: cell-based; conditions: rat brain slices, serum-deprived, 100 μM Aβ1-42
Experimental: We hypothesize that the 90-kDa pS^2152FLNA fragment is derived from degenerated and ruptured neurons in the brain.
Using two brain regions known to be vulnerable to AD damage, 200-μm sections of prefrontal cortex and hippocampus were prepared from 10-week-old rats. These brain slices were cultured as described previously (Wang et al., above) for 4 days to permit recovery of slice preparation damage. These slices were then serum-deprived and incubated with 100 μM Aβ1-42 (Aβ42).
The presence of the 90-kDa pS^2152-FLNA fragments and pS^2152-FLNA protein, as well as other biomarkers that reflect neuronal destruction, nitrated tau (nY^29-tau) and glial damage [truncated glial fibrillary acidic protein (GFAP)] in the culture medium were assessed by Western blotting. The specificity of Aβ42 was defined by Aβ421, an intrareversal peptide.
The 90-kDa pS^2152-FLNA fragment, but not full-length (280-kDa) pS^2152-FLNA protein, appears in the medium starting at 4 hours post-Aβ42 addition and steadily increases over time. […] In addition, full-length GFAP, followed by its truncated form, appears early following Aβ1-42 exposure.

[14] = cerebrospinal fluid, baseline to Day 28, 100 mg twice daily

Filamin A linkages with toll-like receptor 4 [2]: significantly reduced
Drug accumulation ([8]; Day 28 vs. Day 1): approximately 30%
half-life ([8]; human, plasma, AD patients, 100 mg oral twice daily): 4.5 h
Aberrant filamin A conformation ([9]; Day 1): 93%
Aberrant filamin A conformation ([9]; Day 28): 40%
Filamin A linkages with α7-nicotinic acetylcholine receptor [12]: significantly reduced
Compound: CN1CCC2(CC1)NCC(=O)N2Cc1ccccc1 [simufilam]
Cytokine release [1]: preventing
Safety and tolerability [3]: safe and well-tolerated
Reduction of Aβ42's femtomolar binding affinity to α7-nicotinic acetylcholine receptor [4]: 1,000 fold
FLNA association with toll-like receptor 4 (TLR4) [5]: reducing
Amount of the 90 kDa FLNA polypeptide fragment in the plasma ([6]; 14 days into the trial): decrease
Amount of the 90 kDa FLNA polypeptide fragment in the plasma ([6]; 28 days into the trial): decrease
Aβ42 complexes with CD14 [7]: significantly reduced
Aβ42 complexes with α7-nicotinic acetylcholine receptor [10]: significantly reduced
Biomarker response ([11]; 13 mild-to-moderate AD patients, 100 mg oral tablet twice daily for 28 days, baseline to Day 28): All patients showed a biomarker response
Aβ42 change ([11]; baseline to Day 28, 100 mg twice daily): increased slightly
Cerebrospinal fluid biomarkers of neuroinflammation (YKL-40 and inflammatory cytokines) decrease [11, 14]: 5-14%
Neurofilament light chain decrease [11, 14]: 22%
Neurogranin decrease [11, 14]: 32%
Phospho-tau (pT181) decrease [11, 14]: 34%
Total tau decrease [11, 14]: 20%
Biomarker effects in plasma ([11]; plasma compared with cerebrospinal fluid): similar

Compound: Aβ42: amyloid-beta peptide generated by cleavage of amyloid precursor protein; used to induce AD-like damage in brain slices
Time of first appearance of 90-kDa pS2152-FLNA fragment in the medium post-Aβ42 addition [13]: 4 hours
